Test system: nodal section explants from 7-day-old seedlings of corn line 106
Assay: Effect of seed germination medium on callus induction from nodal section explants (36-media screen)
Assay type: cell-based
Protocol: This example described experiments to determine the best combination of auxins and cytokinins in the germination tissue culture media. To improve the efficiency of callus induction from 106 seedlings, 36 different germination media were evaluated. Those media were MS-based with different combinations of picloram (0, 0.1, 1, 2.2, 5 or 10 mg/L) and BAP (0, 0.1, 1, 3, 5 or 10 mg/L) concentrations.

| Structure (SMILES) | callus induction (% embryogenic calli per node) (germination medium picloram 0.00 mg/L, BAP 0.10 mg/L) [%] | callus induction (% embryogenic calli per node) (germination medium picloram 0.00 mg/L, BAP 1.00 mg/L) [%] | callus induction (% embryogenic calli per node) (germination medium picloram 0.00 mg/L, BAP 3.00 mg/L) [%] | callus induction (% embryogenic calli per node) (germination medium picloram 0.00 mg/L, BAP 5.00 mg/L) [%] | callus induction (% embryogenic calli per node) (germination medium picloram 0.00 mg/L, BAP 10.00 mg/L) [%] | callus induction (% embryogenic calli per node) (germination medium picloram 0.10 mg/L, BAP 0.00 mg/L) [%] | callus induction (% embryogenic calli per node) (germination medium picloram 1.00 mg/L, BAP 0.00 mg/L) [%] | callus induction (% embryogenic calli per node) (germination medium picloram 2.20 mg/L, BAP 0.00 mg/L) [%] | callus induction (% embryogenic calli per node) (germination medium picloram 5.00 mg/L, BAP 0.00 mg/L) [%] | callus induction (% embryogenic calli per node) (germination medium picloram 10.00 mg/L, BAP 0.00 mg/L) [%] |
| --- | --- | --- | --- | --- | --- | --- | --- | --- | --- | --- |
| c1ccc(CNc2ncnc3nc[nH]c23)cc1 [BAP, 6-benzylaminopurine] | 4.76 | 0.00 | 14.29 | 0.00 | 0.00 |  |  |  |  |  |
| Nc1c(Cl)c(Cl)nc(C(=O)O)c1Cl [Picloram, 4-amino-3,5,6-trichloropicolinic acid] |  |  |  |  |  | 0.00 | 9.52 | 9.52 | 19.05 | 4.76 |
